Experimental data taken from PubChem BioAssay AID743353 (Broad Institute, 2014).
The source made the active and inactive calls.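 How the source made its calls: active means compound that lowers cell viability with a fitted AC50 at most twice its highest valid tested dose; inconclusive means flat curve with 30 to 70% loss, or poor fit; inactive means the rest.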

System: not listed separately
Test: HEK293 cell cytotoxicity, dose response, cytotoxicity control, luminescence, dry powder, set 13 (AID 743353)
Conditions: HEK293T viability, ATP luminescence CellTiter-Glo, 72 h; at 26 µM (top of the series)

Q: Which activity change, negative = cytotoxicity does the source give for `CC(=O)c1ccc(N2CCN(C(=O)c3ccc4c(c3)OC(F)(F)O4)CC2)cc1` here?
A: Its activity change, negative = cytotoxicity is -14.8% (inactive).

Q: With `COc1cc(C(=O)N2CCN(c3ccc(C(C)=O)cc3)CC2)cc2c1OCO2` as the molecule, how does the activity change, negative = cytotoxicity read?
A: Its activity change, negative = cytotoxicity is -13.3% (inactive).

Q: With `O=C(c1ccc2c(c1)OCO2)N1CCN(c2ccc(S(=O)(=O)C(F)F)cc2)CC1` as the molecule, how does the activity change, negative = cytotoxicity read?
A: Its activity change, negative = cytotoxicity is -6.54% (inactive).

Q: For `CC(=O)c1ccc(N2CCN(C(=O)c3ccc4c(c3C)OCO4)CC2)cc1`, which activity change, negative = cytotoxicity is on record?
A: The activity change, negative = cytotoxicity was -17% (inactive).

Q: With `CC(=O)c1ccc(N2CCN(C(=O)c3cc4c(cn3)OCO4)CC2)cc1` as the molecule, how does the activity change, negative = cytotoxicity read?
A: The activity change, negative = cytotoxicity was -11.9% (inactive).

Q: With `COc1cc2c(cc1C(=O)N1CCN(c3ccc(C(C)=O)cc3)CC1)OCO2` as the molecule, how does the activity change, negative = cytotoxicity read?
A: Its activity change, negative = cytotoxicity is -3.95% (inactive).

Q: With `CS(=O)(=O)c1ccc(N2CCN(C(=O)c3ccc4c(c3)OCO4)CC2)cc1` as the molecule, how does the activity change, negative = cytotoxicity read?
A: Its activity change, negative = cytotoxicity is 3.29% (inactive).

Q: Which activity change, negative = cytotoxicity does the source give for `CC(=O)c1ccc(N2CCCN(C(=O)c3ccc4c(c3)OCO4)CC2)cc1` here?
A: Its activity change, negative = cytotoxicity is 0.038% (inactive).

Q: For `CC(=O)c1ccc(N2CCN(C(=O)c3ccc(Cl)c(Cl)c3)CC2)cc1`, which activity change, negative = cytotoxicity is on record?
A: The activity change, negative = cytotoxicity was -9.71% (inactive).

Q: Which activity change, negative = cytotoxicity does the source give for `CC(=O)c1ccc(N2CCN(C(=O)c3cc(Cl)c4c(c3)OCO4)CC2)cc1` here?
A: The activity change, negative = cytotoxicity was -6.52% (inactive).

Q: Which activity change, negative = cytotoxicity does the source give for `CC(=O)c1ccc(N2CCN(C(=O)c3ccc4c(c3)OCO4)CC2)cc1` here?
A: The activity change, negative = cytotoxicity was -2.01% (inactive).

Q: Which activity change, negative = cytotoxicity does the source give for `O=C(c1ccc2c(c1)OCO2)N1CCN(c2ccc(OC(F)(F)F)cc2)CC1` here?
A: The activity change, negative = cytotoxicity was -10.3% (inactive).

Q: For `CC(=O)c1ccc(N2CCN(C(=O)c3cccc4c3OCO4)CC2)cc1`, which activity change, negative = cytotoxicity is on record?
A: Its activity change, negative = cytotoxicity is 0.216% (inactive).

Q: Which activity change, negative = cytotoxicity does the source give for `CC(=O)c1ccc(N2CCN(C(=O)c3ccc4snnc4c3)CC2)cc1` here?
A: The activity change, negative = cytotoxicity was -9.09% (inactive).

Q: For `CC(=O)c1ccc(N2CCN(S(=O)(=O)c3ccc4c(c3)OCO4)CC2)cc1`, which activity change, negative = cytotoxicity is on record?
A: Its activity change, negative = cytotoxicity is -12.5% (inactive).

Q: With `COc1ccc(C(=O)N2CCN(c3ccc(C(C)=O)cc3)CC2)cc1OC` as the molecule, how does the activity change, negative = cytotoxicity read?
A: The activity change, negative = cytotoxicity was -1.09% (inactive).

Q: Which activity change, negative = cytotoxicity does the source give for `O=C(c1ccc2c(c1)OCO2)N1CCN(c2ccc(C(F)(F)F)cc2)CC1` here?
A: The activity change, negative = cytotoxicity was -8.83% (inactive).

Q: Which activity change, negative = cytotoxicity does the source give for `CC(=O)c1ccc(N2CCN(C(=O)c3cc4c(cc3Cl)OCO4)CC2)cc1` here?
A: Its activity change, negative = cytotoxicity is -7.51% (inactive).

Q: With `CN(C)S(=O)(=O)c1ccc(N2CCN(C(=O)c3ccc4c(c3)OCO4)CC2)cc1` as the molecule, how does the activity change, negative = cytotoxicity read?
A: The activity change, negative = cytotoxicity was -16.1% (inactive).

Q: With `N#Cc1ccc(N2CCN(C(=O)c3ccc4c(c3)OCO4)CC2)cc1` as the molecule, how does the activity change, negative = cytotoxicity read?
A: The activity change, negative = cytotoxicity was -2.51% (inactive).

Q: With `CC(=O)c1ccc(N2CCN(C(=O)c3ccc4ocnc4c3)CC2)cc1` as the molecule, how does the activity change, negative = cytotoxicity read?
A: The activity change, negative = cytotoxicity was -8.67% (inactive).

Q: For `CC(=O)c1ccc(N2CC3CC2CN3C(=O)c2ccc3c(c2)OCO3)cc1` (stereo unspecified), which activity change, negative = cytotoxicity is on record?
A: The activity change, negative = cytotoxicity was 4.9% (inactive).

Q: Which activity change, negative = cytotoxicity does the source give for `CC(=O)c1ccc(N2CCN(C(=O)Nc3ccc4c(c3)OCO4)CC2)cc1` here?
A: The activity change, negative = cytotoxicity was -0.537% (inactive).

System: HEK293T viability, ATP luminescence CellTiter-Glo, 72 h
Test: as above
Conditions: not given

Q: With `CC(=O)c1ccc(N2CCN(C(=O)c3cc4c(cc3C)OCO4)CC2)cc1` as the molecule, how does the AC50 read?
A: Its AC50 is > 52 µM (inactive).

Q: With `O=C(c1ccc2c(c1)OCO2)N1CCN(c2ccc(S(=O)(=O)C(F)(F)F)cc2)CC1` as the molecule, how does the AC50 read?
A: The AC50 was > 52 µM (inactive).

Q: For `CC(=O)c1ccc(N2CCN(C(=O)c3ccc4c(c3)OC(C)(C)O4)CC2)cc1`, which AC50 is on record?
A: The AC50 was > 52 µM (inactive).
